# Entries after “also recorded” stand apart in the source; their conditions may differ.
# Key:
# HRas^G12V [1] = target: T1, HRas^G12V (Homo sapiens (Human), UniProt P01112, G12V); assay: 19F DLB (ligand-observed 19F NMR) score; assay type: binding; set-up: scale not given here
# Outline: (§1)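 Fragments were pooled at 240 μM each with 50 μM HRas G12V in 25 mM sodium phosphate pH 7.4, 150 mM NaCl, 5 mM MgCl2, 1 mM TCEP-d16, 10% D2O, and screened by 1H-decoupled 1D 19F NMR at 600 MHz (64 scans, 5 s relaxation delay). T2-CPMG data were collected with 1 ms echoes and eight delays from 1 to 800 ms.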
# HRas^G12V [2] = target: T1, HRas^G12V; assay: Overall binding/activity in the various assays (NMR consensus binding)
# Outline: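 Fragments (240 µM each, pooled) screened against 50 µM HRas^G12V in 25 mM sodium phosphate pH 7.4, 150 mM NaCl, 5 mM MgCl2, 1 mM TCEP-d16 by 1H-decoupled 1D 19F NMR. Hits confirmed by ligand- and protein-observed 1D 1H, STD and T2-CPMG (aggregation check); consensus binding ranked, with 15N HSQC for sites and Kd.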
# HRas^G12V [3] = target: T1, HRas^G12V; assay: 19F T2-CPMG NMR score; assay type: binding
# Outline: as §1
Compound,19F DLB Score (HRas^G12V [1]),Binding to HRas^G12V (in words) (HRas^G12V [2]),19F T2-CPMG Score (HRas^G12V [3]),Activity ranking on HRas^G12V (in words) (HRas^G12V [2])
"COC(=O)[C@H]1CN(C)CCN1C(=O)Cc1c[nH]c2cc(F)ccc12 [Compound 10157, Methyl (R)-1-(2-(6-fluoro-1H-indol-3-yl)acetyl)-4-methylpiperazine-2-carboxylate]",1.04,low or no binding,3.58,–
CN1CCN(C(=O)Cc2c[nH]c3cc(F)ccc23)[C@H](C(=O)O)C1 [Compound 10158],0.93,low or no binding,2.14,–
"CC(=O)NC[C@H]1CN(C(=O)Cc2c[nH]c3cc(F)ccc23)CCO1 [Compound 10162, (S)—N-((4-(2-(6-fluoro-1H-indol-3-yl)acetyl)morpholin-2-yl)methyl) acetamide]",1.65,low or no binding,5.5,–
COC(=O)[C@@H]1CN(C(=O)Cc2c[nH]c3cc(F)ccc23)CCN1C [Compound 10163],1.61,low or no binding,7.3,–
"CN1CCN(C(=O)Cc2c[nH]c3cc(F)ccc23)[C@@H](C(=O)O)C1 [Compound 10165, (R)-1-(2-(6-fluoro-1H-indol-3-yl)acetyl)-4-methylpiperazine-2-carboxylic acid]",1.58,low or no binding,5.28,–
"CN1CCN(C(=O)Cc2c[nH]c3cc(F)ccc23)C[C@@H]1C(=O)O [Compound 10166, (R)-4-(2-(6-fluoro-1H-indol-3-yl)acetyl)-1-methylpiperazine-2-carboxylic Acid]",1.55,low or no binding,7.19,–
CCOC(=O)[C@@H]1CN(C(=O)Cc2c[nH]c3cc(F)ccc23)CCO1 [Compound 10168],1.43,low or no binding,4.84,–
CCOC(=O)[C@H]1CN(C(=O)Cc2c[nH]c3cc(F)ccc23)CCO1 [Compound 10169],1.6,low or no binding,7.14,–
"O=C(Cc1c[nH]c2cc(F)ccc12)N1CCN(C(=O)C2CCCO2)CC1 (stereo not drawn) [Compound 10170, 2-(6-fluoro-1H-indol-3-yl)-1-(4-(tetrahydrofuran-2-carbonyl)piperazin-1-yl)ethan-1-one]",1.52,low or no binding,6.11,–
CCOC(=O)C[C@@H]1CN(C(=O)Cc2c[nH]c3cc(F)ccc23)CCO1 [Compound 10171],1.19,low or no binding,7.62,–
"CC1CN(C(=O)Cc2cc(F)cc3[nH]ccc23)C1 [Compound 10172, 2-(6-fluoro-1H-indol-4-yl)-1-(3-methylazetidin-1-yl) ethan-1-one]",0.93,low or no binding,0.11,–
CN1CCN(C(=O)Cc2c[nH]c3cc(F)ccc23)C[C@@H]1C(=O)O [Compound 10173],1.33,low or no binding,3.79,–
"CC1CN(C(=O)Cc2c[nH]c3cc(F)cnc23)C1 [Compound 10174, 2-(6-fluoro-1H-pyrrolo[3,2-b]pyridin-3-yl)-1-(3-methylazetidin-1-yl) ethan-1-one]",1.14,low or no binding,2.32,–
O=C(O)C[C@@H]1CN(C(=O)Cc2c[nH]c3cc(F)ccc23)CCO1 [Compound 10175],1.19,low or no binding,2.15,–
"CC1CN(C(=O)Cc2cc3cc[nH]c3cc2F)C1 [Compound 10176, 2-(6-fluoro-1H-indol-5-yl)-1-(3-methylazetidin-1-yl) ethan-1-one]",1.01,low or no binding,0.19,–
"CCOC(=O)C[C@H]1CN(C(=O)Cc2c[nH]c3cc(F)ccc23)CCO1 [Compound 10177, Ethyl (S)-2-(4-(2-(6-fluoro-1H-indol-3-yl)acetyl)morpholin-2-yl)acetate]",1.12,low or no binding,7.14,–
"O=C(O)C[C@H]1CN(C(=O)Cc2c[nH]c3cc(F)ccc23)CCO1 [Compound 10178, (S)-2-(4-(2-(6-fluoro-1H-indol-3-yl)acetyl)morpholin-2-yl)acetic acid]",1.11,low or no binding,2.74,–
COC(=O)Cc1c[nH]c2cc(F)ccc12 [Compound 11001],1.76,low or no binding,6.77,–
O=C1CC(c2c[nH]c3cc(F)ccc23)C(=O)N1 (stereo not drawn) [Compound 11006],3.43,–,24.24,More active; also recorded: Most active
Fc1ccc2c(C3CCNC3)c[nH]c2c1 (stereo not drawn) [Compound 11007],1.76,low or no binding,6.67,–

Compound,19F DLB Score (HRas^G12V [1]),Binding to HRas^G12V (in words) (HRas^G12V [2]),19F T2-CPMG Score (HRas^G12V [3]),Activity ranking on HRas^G12V (in words) (HRas^G12V [2])
CN(C)CC(=O)Nc1ccc(NC(=O)Cc2c[nH]c3cc(F)ccc23)cc1 [Compound 11008],6.41,–,38.4,More active; also recorded: Most active
Fc1ccc2c(C3=CCNCC3)c[nH]c2c1 [Compound 11011],1.52,low or no binding,5.22,–
CC(C)(C)OC(=O)n1cc(CC#N)c2ccc(F)cc21 [Compound 11013],0.4,low or no binding,1.74,–
CN(C)CC(=O)Nc1ccccc1NC(=O)Cc1c[nH]c2cc(F)ccc12 [Compound 11014],1.44,low or no binding,3.32,–
CCOC(=O)C(C#N)c1c[nH]c2cc(F)ccc12 (stereo not drawn) [Compound 11016],1.74,low or no binding,5.57,–
O=C(c1ccccc1)N1CCC(c2c[nH]c3cc(F)ccc23)CC1 [Compound 11025],1,low or no binding,−2.12,–
O=C(c1ccc(F)cc1F)N1CCC(c2c[nH]c3cc(F)ccc23)CC1 [Compound 11026],2.02,low or no binding,−1.86,–
CC1(C)OC(=O)C(C(c2ccccc2F)c2c[nH]c3cc(F)ccc23)C(=O)O1 (stereo not drawn) [Compound 11041],1.65,low or no binding,3.61,–
CC1(C)OC(=O)C(C(c2ccccc2F)c2c[nH]c3cc(F)ccc23)C(=O)O1 (stereo not drawn) [Compound 11042],1.56,low or no binding,5.62,–
O=C(O)CC(c1ccccc1F)c1c[nH]c2cc(F)ccc12 (stereo not drawn) [Compound 11043],3.27,–,20.23,More active
CN(C)CC(=O)Nc1cccc(NC(=O)Cc2c[nH]c3cc(Cl)cc(F)c23)c1 [Compound 11072],0.08,low or no binding,1.02,–
CN(C)CC(=O)Nc1cccc(NC(=O)Cc2c[nH]c3cc(F)cc(Cl)c23)c1 [Compound 11073],<LLOQ,–,<LLOQ,More active; also recorded: Most active
"CN(C)Cc1c[nH]c2ccc(F)cc12 [FS-1254, reference compound]",1.15,low or no binding,0.74,–
O=C(CN1CCCCC1)c1c[nH]c2cc(F)ccc12 [compound 10076],3.34,–,37.86,More active
CC(=O)N1CC[C@H](NC(=O)Cc2c[nH]c3cc(F)ccc23)C1 [compound 10090],1.51,low or no binding,6.28,–
COCCOc1cccc(NC(=O)Cc2c[nH]c3cc(F)ccc23)c1 [compound 10094],3,low or no binding,2.5,–
CC(=O)N[C@@H]1CCCN(C(=O)Cc2c[nH]c3cc(F)ccc23)C1 [compound 10137],2.02,low or no binding,6.16,–
COC[C@@H]1CN(C(=O)Cc2c[nH]c3cc(F)ccc23)CCO1 [compound 10155],1.49,low or no binding,8.16,–
CC(=O)NC[C@@H]1CN(C(=O)Cc2c[nH]c3cc(F)ccc23)CCO1 [compound 10164],1.61,low or no binding,5.59,–
